Laboratory results taken from US20070049593A1 (priority 2004, published 2007).
Structures can show the parent of a compound that is named as a salt.

molecular target: T1, HCV polymerase (Hepatitis C virus genotype 1b, UniProt P26663); assay: biochemical; set-up: species or system HCV BK strain
T1 construct: a region encoding NS5B (J Virol 1991 March, 65(3), 1105-13, 544 amino acids after deletion of 47 amino acids on the C-terminal); 6xHis (C); made in house; host or cells: Escherichia coli
Summary of the method: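 His-tagged NS5B (BK strain, 47-aa C-terminal deletion, E. coli-expressed) at 0.5 μg/ml copied 5 μg/ml run-off RNA bearing the HCV 3′ UTR with 2 μM UTP plus [3H]UTP, 50 μM ATP/GTP, in pH 7.5 Tris with 5 mM MgCl2, 25 °C, 90 min. TCA-precipitated RNA was counted and IC50 calculated.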

T1 sequence (P26663 2420-2963): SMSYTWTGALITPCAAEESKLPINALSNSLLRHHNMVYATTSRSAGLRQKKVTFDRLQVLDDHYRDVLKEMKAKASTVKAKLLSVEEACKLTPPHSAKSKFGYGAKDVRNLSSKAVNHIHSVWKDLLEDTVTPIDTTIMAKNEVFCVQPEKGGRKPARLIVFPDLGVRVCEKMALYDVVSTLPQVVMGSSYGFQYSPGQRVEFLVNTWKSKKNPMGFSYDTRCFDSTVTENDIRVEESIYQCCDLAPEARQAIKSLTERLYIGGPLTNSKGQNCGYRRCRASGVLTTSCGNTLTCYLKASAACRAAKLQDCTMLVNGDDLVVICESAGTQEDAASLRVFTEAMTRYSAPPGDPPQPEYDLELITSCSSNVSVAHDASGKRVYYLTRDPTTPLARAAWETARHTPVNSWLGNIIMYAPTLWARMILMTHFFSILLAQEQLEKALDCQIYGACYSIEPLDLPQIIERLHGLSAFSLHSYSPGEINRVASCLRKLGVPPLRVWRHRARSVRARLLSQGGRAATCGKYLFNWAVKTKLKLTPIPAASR

Compound	IC50 [µM]
O=C1CCN(CCN2CCn3c(c(C4CCCCC4)c4ccc(C(=O)O)cc43)-c3ccccc32)CCN1 [Example 1-519, 13-cyclohexyl-5-[2-(5-oxo-1,4-diazepan-1-yl)ethyl]-6,7-dihydro-5H-benzo[5,6][1,4]diazepino[7,1-a]indole-10-carboxylic acid dihydrochloride]	< 0.1
CC(=O)NS(=O)(=O)c1ccc2c(C3CCCCC3)c3n(c2c1)CCN(CCN1CCCCC1)c1cc(C)ccc1-3 [Example 1-520, N-acetyl-13-cyclohexyl-3-methyl-5-[2-(piperidin-1-yl)ethyl]-6,7-dihydro-5H-benzo[5,6][1,4]diazepino[7,1-a]indole-10-sulfonamide dihydrochloride]	< 0.1
Cc1ccc2c(c1)N(CCCN(C(C)C)C(C)C)CCn1c-2c(C2CCCCC2)c2ccc(C(=O)O)cc21 [Example 1-521, 13-cyclohexyl-5-(3-diisopropylaminopropyl)-3-methyl-6,7-dihydro-5H-benzo[5,6][1,4]diazepino[7,1-a]indole-10-carboxylic acid dihydrochloride]	< 0.1
O=C(O)c1ccc2c(C3CCCCC3)c3n(c2c1)CCN(CCN1CCCCC1)c1cc(OC(F)(F)F)ccc1-3 [Example 1-522, 13-cyclohexyl-5-[2-(piperidin-1-yl)ethyl]-3-trifluoromethoxy-6,7-dihydro-5H-benzo[5,6][1,4]diazepino[7,1-a]indole-10-carboxylic acid dihydrochloride]	< 0.1
COCC[C@@H]1CCCN(CCN2CCn3c(c(C4CCCCC4)c4ccc(C(=O)O)cc43)-c3ccc(OC(F)(F)F)cc32)C1 [Example 1-523, 13-cyclohexyl-5-{2-[(S)-3-(2-methoxyethyl)piperidin-1-yl]ethyl}-3-trifluoromethoxy-6,7-dihydro-5H-benzo[5,6][1,4]diazepino[7,1-a]indole-10-carboxylic acid dihydrochloride]	< 0.1
CCN(CCCN1CCn2c(c(C3CCCCC3)c3ccc(C(=O)O)cc32)-c2ccc(C)cc21)C(C)C [Example 1-524, 13-cyclohexyl-5-[3-(N-ethyl-N-isopropylamino)propyl]-3-methyl-6,7-dihydro-5H-benzo[5,6][1,4]diazepino[7,1-a]indole-10-carboxylic acid dihydrochloride]	< 0.1
COC1CCCN(CCN2CCn3c(c(C4CCCCC4)c4ccc(C(=O)O)cc43)-c3ccc(C)cc32)CC1 (stereo not shown) [Example 1-525, 13-cyclohexyl-5-[2-(4-methoxyazepan-1-yl)ethyl]-3-methyl-6,7-dihydro-5H-benzo[5,6][1,4]diazepino[7,1-a]indole-10-carboxylic acid dihydrochloride]	< 0.1
Cc1ccc2c(c1)N(CCN1CCC(=O)N(C)CC1)CCn1c-2c(C2CCCCC2)c2ccc(C(=O)O)cc21 [Example 1-526, 13-cyclohexyl-3-methyl-5-[2-(4-methyl-5-oxo-1,4-diazepan-1-yl)ethyl]-6,7-dihydro-5H-benzo[5,6][1,4]diazepino[7,1-a]indole-10-carboxylic acid dihydrochloride]	< 0.1
Cc1ccc2c(c1)N(CCN1CCC[C@@H](CC(=O)N(C)C)C1)CCn1c-2c(C2CCCCC2)c2ccc(C(=O)O)cc21 [Example 1-527, 13-cyclohexyl-5-{2-[(S)-3-(dimethylcarbamoylmethyl)piperidin-1-yl]ethyl}-3-methyl-6,7-dihydro-5H-benzo[5,6][1,4]diazepino[7,1-a]indole-10-carboxylic acid dihydrochloride]	< 0.1
COCCOC[C@@H]1CCCN(CCN2CCn3c(c(C4CCCCC4)c4ccc(C(=O)O)cc43)-c3ccc(C)cc32)C1 [Example 1-528, 13-cyclohexyl-5-{2-[(R)-3-(2-methoxyethoxymethyl)piperidin-1-yl]ethyl}-3-methyl-6,7-dihydro-5H-benzo[5,6][1,4]diazepino[7,1-a]indole-10-carboxylic acid dihydrochloride]	< 0.1
Cc1ccc2c(c1)N(CCN1CCC[C@@H](CC(C)(C)O)C1)CCn1c-2c(C2CCCCC2)c2ccc(C(=O)O)cc21 [Example 1-529, 13-cyclohexyl-5-{2-[(S)-3-(2-hydroxy-2-methylpropyl)piperidin-1-yl]ethyl}-3-methyl-6,7-dihydro-5H-benzo[5,6][1,4]diazepino[7,1-a]indole-10-carboxylic acid dihydrochloride]	< 0.1
COC[C@@H]1CCCN(CCN2CCn3c(c(C4CCCCC4)c4ccc(C(=O)O)cc43)-c3cc(F)c(F)cc32)C1 [Example 1-530, 13-cyclohexyl-2,3-difluoro-5-[2-7((R)-3-methoxymethylpiperidin-1-yl)ethyl]-6,7-dihydro-5H-benzo[5,6][1,4]diazepino[7,1-a]indole-10-carboxylic acid dihydrochloride]	< 0.1
CCN(CCCOC)CCN1CCn2c(c(C3CCCCC3)c3ccc(C(=O)O)cc32)-c2ccc(C)cc21 [Example 1-531, 13-cyclohexyl-5-{2-[N-ethyl-N-(3-methoxypropyl)amino]ethyl}-3-methyl-6,7-dihydro-5H-benzo[5,6][1,4]diazepino[7,1-a]indole-10-carboxylic acid dihydrochloride]	< 0.1
Cc1ccc2c(c1)N(CCN1CCOCC(C)C1)CCn1c-2c(C2CCCCC2)c2ccc(C(=O)O)cc21 (stereo not shown) [Example 1-532, 13-cyclohexyl-3-methyl-5-[2-(6-methyl-1,4-oxazepan-4-yl)ethyl]-6,7-dihydro-5H-benzo[5,6][1,4]diazepino[7,1-a]indole-10-carboxylic acid dihydrochloride]	< 0.1
Cc1ccc2c(c1)N(CCN1CCC[C@@H](C(C)(C)O)C1)CCn1c-2c(C2CCCCC2)c2ccc(C(=O)O)cc21 [Example 1-533, 13-cyclohexyl-5-{2-[(R)-3-(1-hydroxy-1-methylethyl)piperidin-1-yl]ethyl}-3-methyl-6,7-dihydro-5H-benzo[5,6][1,4]diazepino[7,1-a]indole-10-carboxylic acid dihydrochloride]	< 0.1
COCCN1CCCC(CCN2CCn3c(c(C4CCCCC4)c4ccc(C(=O)O)cc43)-c3ccc(Cl)cc32)C1 (stereo not shown) [Example 1-534, 3-chloro-13-cyclohexyl-5-{2-[1-(2-methoxyethyl)piperidin-3-yl]ethyl}-6,7-dihydro-5H-benzo[5,6][1,4]diazepino[7,1-a]indole-10-carboxylic acid dihydrochloride]	< 0.1
Cc1noc(C)c1COc1ccc2c(c1)N(CCN(C)C)CCn1c-2c(C2CCCCC2)c2ccc(C(=O)O)cc21 [Example 1-535, 13-cyclohexyl-5-(2-dimethylaminoethyl)-3-(3,5-dimethylisoxazol-4-ylmethoxy)-6,7-dihydro-5H-benzo[5,6][1,4]diazepino[7,1-a]indole-10-carboxylic acid dihydrochloride]	< 0.1
Cc1ccc2c(c1)N(CCN1CCCC(=O)CC1)CCn1c-2c(C2CCCCC2)c2ccc(C(=O)O)cc21 [Example 1-536, 13-cyclohexyl-3-methyl-5-[2-(4-oxoazepan-1-yl)ethyl]-6,7-dihydro-5H-benzo[5,6][1,4]diazepino[7,1-a]indole-10-carboxylic acid dihydrochloride]	< 0.1
Cc1ccc2c(c1)N(CCN1CCC[C@@H](CCC(=O)N(C)C)C1)CCn1c-2c(C2CCCCC2)c2ccc(C(=O)O)cc21 [Example 1-537, 13-cyclohexyl-5-{2-[(S)-3-(2-dimethylcarbamoylethyl)piperidin-1-yl]ethyl}-3-methyl-6,7-dihydro-5H-benzo[5,6][1,4]diazepino[7,1-a]indole-10-carboxylic acid dihydrochloride]	< 0.1
Cc1ccc2c(c1)N(CCN1CCCC(O)CC1)CCn1c-2c(C2CCCCC2)c2ccc(C(=O)O)cc21 (stereo not shown) [Example 1-538, 13-cyclohexyl-5-[2-(4-hydroxyazepan-1-yl)ethyl]-3-methyl-6,7-dihydro-5H-benzo[5,6][1,4]diazepino[7,1-a]indole-10-carboxylic acid dihydrochloride]	< 0.1
CCN(CCCCOC)CCN1CCn2c(c(C3CCCCC3)c3ccc(C(=O)O)cc32)-c2ccc(C)cc21 [Example 1-539, 13-cyclohexyl-5-{2-[N-ethyl-N-(4-methoxybutyl)amino]ethyl}-3-methyl-6,7-dihydro-5H-benzo[5,6][1,4]diazepino[7,1-a]indole-10-carboxylic acid dihydrochloride]	< 0.1
COCCCC1CCCN(CCN2CCn3c(c(C4CCCCC4)c4ccc(C(=O)O)cc43)-c3ccc(C)cc32)C1 [Example 1-540, 13-cyclohexyl-5-{2-[(S)-3-(3-methoxypropyl)piperidin-1-yl]ethyl}-3-methyl-6,7-dihydro-5H-benzo[5,6][1,4]diazepino[7,1-a]indole-10-carboxylic acid dihydrochloride]	< 0.1
COC(C)(C)[C@@H]1CCCN(CCN2CCn3c(c(C4CCCCC4)c4ccc(C(=O)O)cc43)-c3ccc(C)cc32)C1 [Example 1-541, 13-cyclohexyl-5-{2-[(R)-3-(1-methoxy-1-methylethyl)piperidin-1-yl]ethyl}-3-methyl-6,7-dihydro-5H-benzo[5,6][1,4]diazepino[7,1-a]indole-10-carboxylic acid dihydrochloride]	< 0.1
COCCC1CCCCN1CCN1CCn2c(c(C3CCCCC3)c3ccc(C(=O)O)cc32)-c2ccc(C)cc21 (stereo not shown) [Example 1-542, 13-cyclohexyl-5-{2-[2-(2-methoxyethyl)piperidin-1-yl]ethyl}-3-methyl-6,7-dihydro-5H-benzo[5,6][1,4]diazepino[7,1-a]indole-10-carboxylic acid dihydrochloride]	< 0.1
CN(C)CCN1CCn2c(c(C3CCCCC3)c3ccc(C(=O)O)cc32)-c2ccc(OCc3ccccn3)cc21 [Example 1-543, 13-cyclohexyl-5-(2-dimethylaminoethyl)-3-(pyridin-2-ylmethoxy)-6,7-dihydro-5H-benzo[5,6][1,4]diazepino[7,1-a]indole-10-carboxylic acid trihydrochloride]	< 0.1
